Assay [1] deals with human breast cancer (MCF-7 cell lines). The experiment in a line: MTT cytotoxicity assay, MCF-7. In kind it is cell-based. As to the method:
(§1) The synthesized compounds were studied for their cytotoxic activity against several human cancer cell lines, namely human osteosarcoma (HOS cell lines), human breast adenocarcinoma (MDA-MB-231 cell lines), human breast cancer (MCF-7 cell lines), human colorectal adenocarcinoma (Caco-2 cell lines) and human colon cell line (HCT-116 cell lines) using MTT assay at 100 µM, and the results were outlined as shown in Table 1.
(§2) Human osteosarcoma (HOS cell line), human breast adenocarcinoma (MDA-MB-231cell lines), human breast cancer (MCF-7 cell lines), human colorectal adenocarcinoma (Caco2 cell lines), human colon cell line (HCT-116 cell lines), normal human cell lines (BJ-1), and “a telomerase immortalized normal foreskin fibroblast cell line” were obtained from Karolinska Center, Department of Oncology and Pathology, Karolinska Institute and Hospital, Stockholm, Sweden.
(§3) Following culturing for 10 days, the cells were seeded at concentration of 10 × 10^3 cells per well in case of MCF-7 & MDA, 20 × 10^3 cells/well in a fresh complete growth medium in case of HCT-116, Caco2, & HOS and 40 × 10^3 cells/well in case of BJ-1 at 37 °C for 24 h in a water jacketed carbon dioxide incubator. After 48 h’ incubation, the medium was aspirated, and then 40 μl MTT salt (2.5 mg/mL) were added for a further 4 h; 200 μl 10% sodium dodecyl sulphate (SDS) in deionized water were added to each well and incubated overnight at 37 °C. The absorbance was measured at 595 nm with reference 690 nm. Doxorubicin was used as positive control, and 0.5% DMSO was used as negative control. IC50 values were calculated, using a probit analysis, and by utilizing the SPSS computer program (SPSS for Windows, statistical analysis software package/version 9/1989 SPSS Inc., Chicago, IL, USA).
On the technique in general: Tetrazolium assays rely on reduction of a dye to a coloured formazan, in cell work by metabolically active cells.

In assay [2] the test system is human colorectal adenocarcinoma (Caco-2 cell lines). The assay can be described thus: MTT cytotoxicity assay, Caco-2. The assay is classed as cell-based. The following applies: Caco-2, 48 h. As to the method:
as §1, §2, §3

In another assay the target is VEGFR-2 (Homo sapiens, UniProt P35968). The experiment in a line: VEGFR-2 inhibitory assay (ELISA). In kind it is biochemical. The following applies: mean of three values; read-out: IC50 (Mean ± SEM), VEGFR-2. Here is the method: The cells were harvested, and the homogenates were prepared in saline using a tight pestle homogenizer until complete cell disruption. The kit uses a double-antibody sandwich enzyme-linked immunosorbent assay (ELISA) to determine the level of human VEGFR-2 in samples. A monoclonal antibody for VEGFR-2 was pre-coated onto 96-well plates. The test samples are added to the wells, and a biotinylated detection polyclonal antibody from goat specific for VEGFR-2 was added subsequently followed by washing with PBS buffer. Avidin-Biotin-Peroxidase complex was added, and the unbound conjugates were washed away with PBS buffer. HRP substrate TMB was used to visualize HRP enzymatic reaction. TMB was catalyzed by HRP to produce a blue color product that changed into yellow after adding acidic stop solution. The density of yellow color is proportional to the human VEGFR-2 amount of the sample captured in the plate. The chroma of color and the concentration of the human VEGFR-2 of the samples were positively correlated, and the optical density was determined at 450 nm. The level of human VEGFR-2 in samples was calculated (pg/ml) as duplicate determinations from the standard curve. Percent inhibition was calculated in comparison to control untreated cells.
VEGFR-2, sequence (P35968 20-1356): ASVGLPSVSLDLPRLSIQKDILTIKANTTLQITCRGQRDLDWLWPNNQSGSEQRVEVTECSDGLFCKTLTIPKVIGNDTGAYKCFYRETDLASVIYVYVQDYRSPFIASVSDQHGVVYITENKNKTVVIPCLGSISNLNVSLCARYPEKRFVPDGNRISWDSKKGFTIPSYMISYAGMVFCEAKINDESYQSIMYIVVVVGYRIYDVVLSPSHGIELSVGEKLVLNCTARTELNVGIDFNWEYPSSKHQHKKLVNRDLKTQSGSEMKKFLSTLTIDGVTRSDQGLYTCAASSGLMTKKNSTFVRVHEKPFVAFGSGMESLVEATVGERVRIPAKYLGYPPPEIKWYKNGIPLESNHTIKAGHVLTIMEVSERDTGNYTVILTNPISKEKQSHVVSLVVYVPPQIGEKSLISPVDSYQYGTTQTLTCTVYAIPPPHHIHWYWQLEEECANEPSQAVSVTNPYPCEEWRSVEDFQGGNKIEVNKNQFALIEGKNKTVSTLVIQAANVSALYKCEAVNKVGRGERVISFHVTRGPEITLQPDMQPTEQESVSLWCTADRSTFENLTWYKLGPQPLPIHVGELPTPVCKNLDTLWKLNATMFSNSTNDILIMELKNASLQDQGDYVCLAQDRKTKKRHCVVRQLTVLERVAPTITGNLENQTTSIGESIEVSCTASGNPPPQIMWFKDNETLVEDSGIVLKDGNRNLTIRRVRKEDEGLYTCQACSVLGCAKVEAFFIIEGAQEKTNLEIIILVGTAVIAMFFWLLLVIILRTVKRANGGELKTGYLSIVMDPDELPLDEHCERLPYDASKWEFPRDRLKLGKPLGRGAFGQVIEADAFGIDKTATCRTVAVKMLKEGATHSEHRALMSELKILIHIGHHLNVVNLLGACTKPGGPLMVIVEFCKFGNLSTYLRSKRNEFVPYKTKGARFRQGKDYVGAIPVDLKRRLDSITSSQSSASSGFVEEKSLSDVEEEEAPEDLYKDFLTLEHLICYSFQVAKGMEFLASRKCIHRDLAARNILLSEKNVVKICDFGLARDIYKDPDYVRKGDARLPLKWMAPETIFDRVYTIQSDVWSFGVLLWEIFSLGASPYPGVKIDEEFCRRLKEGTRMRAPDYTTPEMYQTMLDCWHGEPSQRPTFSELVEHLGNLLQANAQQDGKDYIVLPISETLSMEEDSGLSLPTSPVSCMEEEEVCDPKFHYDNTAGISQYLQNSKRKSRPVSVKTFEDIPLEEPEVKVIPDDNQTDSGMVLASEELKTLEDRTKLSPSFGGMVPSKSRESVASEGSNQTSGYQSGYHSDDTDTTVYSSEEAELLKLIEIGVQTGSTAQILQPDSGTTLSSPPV
(In an ELISA, binding on a coated surface is turned into a signal by an enzyme label.)

The target in the next assay is CDK-2/cyclin A2 (Homo sapiens, UniProt P24941). The experiment in a line: CDK-2/cyclin A2 inhibitory assay (ELISA). The assay is classed as biochemical. The following applies: mean of three values; read-out: IC50 (Mean ± SEM), CDK-2/Cyclin A2. Here is the method:
Assay of CDK-2/cyclin A2 was achieved through ELISA using an affinity tag labeled capture antibody. […] After the incubation period, the unrestrained substance has been discarded, and the wells have been washed. The added TMB (3,3′,5,5′-tetramethylbenzidine) substrate was prompted by Horseradish peroxidase (HRP), and blue coloration appeared. This reaction was stopped through the addition of stop solution to complete changing in colour from blue to yellow. The created signals were equivalent to the quantity of bound analyte, and the Robonik P2000 ELISA reader was used to record the intensity at a certain wavelength (450 nm).

With `CCn1c(COc2ccc3c(-c4ccccc4)cc(=O)oc3c2)nnc1SC1OCC(O)C(O)C1O` [Compound 10, 4-Phenyl-7-((4-ethyl-5-(1-(β-D-xylopyranosyl)thio)-4H-1,2,4-triazol-3-yl)meth-oxy)-2H-chromen-2-one], the cytotoxicity at 100 µM came out at 66.3 ± 1% in assay [1] (MCF7, 48 h) and 0.7 ± 0.003% in assay [2]. For the same compound, the IC50 in assay [1] (MCF7, MTT, 0.78–100 µM, ± SD) turned out to be 19600 ± 700 nM; on VEGFR-2, 790 ± 140 nM; on CDK-2/cyclin A2, 150 nM.
